Target: T1, PKG1α (h) (Homo sapiens, UniProt Q13976)
T1 construct: purchased Eurofins Pharma Discovery Services UK Ltd (contract assay service)
T1 sequence (Q13976 1-671): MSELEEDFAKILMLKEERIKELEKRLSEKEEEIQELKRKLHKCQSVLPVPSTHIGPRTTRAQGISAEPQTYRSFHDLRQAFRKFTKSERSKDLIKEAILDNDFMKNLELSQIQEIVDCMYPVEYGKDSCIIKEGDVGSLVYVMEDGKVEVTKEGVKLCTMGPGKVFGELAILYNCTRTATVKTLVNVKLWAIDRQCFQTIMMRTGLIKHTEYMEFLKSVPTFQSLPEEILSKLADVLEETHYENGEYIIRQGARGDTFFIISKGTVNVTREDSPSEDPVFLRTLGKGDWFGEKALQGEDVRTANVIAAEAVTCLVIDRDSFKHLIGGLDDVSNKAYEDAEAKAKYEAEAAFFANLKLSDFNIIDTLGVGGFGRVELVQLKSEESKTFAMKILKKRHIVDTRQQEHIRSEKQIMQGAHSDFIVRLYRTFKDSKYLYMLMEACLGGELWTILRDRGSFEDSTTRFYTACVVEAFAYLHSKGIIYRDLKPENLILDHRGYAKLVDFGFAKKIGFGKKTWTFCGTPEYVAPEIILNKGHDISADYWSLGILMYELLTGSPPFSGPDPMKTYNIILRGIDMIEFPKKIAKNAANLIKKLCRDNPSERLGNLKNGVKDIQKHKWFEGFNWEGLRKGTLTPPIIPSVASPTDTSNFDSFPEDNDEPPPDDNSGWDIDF
Assay: PKG1α kinase activity assay, cell free
Type: biochemical
Method: The capacity of test peptides to inhibit the activity of the kinases PKG1α, PKG1β, and Src family kinases in a cell free assay was assessed. The test peptides were amidated at their C-terminal end (indicated by “—NH2”) unless otherwise noted. Kinase activity assays were conducted by Eurofins Pharma Discovery Services UK Ltd (Dundee Technology Park, Dundee, United Kingdom) and Reaction Biology Corp. (Malvern, Pa., USA).
All test peptides are prepared to 50× final assay concentration in 100% DMSO. This working stock of the test compound is added to assay wells as the first component in the reaction, followed by the remaining components of the respective assay protocols described below. There is no pre-incubation step between the test peptide and the kinase prior to initiation of the reaction. The kinases are diluted in buffer (20 mM MOPS, 1 mM EDTA, 0.01% Brij-35, 5% Glycerol, 0.1% β-mercaptoethanol, 1 mg/mL BSA) prior to addition to the reaction mix.
Positive control wells contain all components of the reaction, except the test peptide of interest. However, DMSO (at a final concentration of 2%) is included in positive control wells to control for solvent effects. Negative control wells contain all components of the reaction, with a reference inhibitor (staurosporine) replacing the test peptide. This abolishes kinase activity and establishes a base-line (0% kinase activity). Kinase assay protocols (Eurofins Pharma Discovery Services UK Ltd, Dundee Technology Park, Dundee, United Kingdom) are described below. Of the Src family kinases, only the assay protocol for c-Src is shown.
PKG1α (h) is incubated with 8 mM MOPS pH 7.0, 0.2 mM EDTA, 10 μM cGMP, 200 μM peptide RRRLSFAEPG, 10 mM magnesium acetate and [γ-^33P]-ATP (specific activity approx. 500 cpm/pmol, concentration as required). The reaction is initiated by the addition of the MgATP mix. After incubation for 40 minutes at room temperature, the reaction is stopped by the addition of 3% phosphoric acid solution. A 10 μL aliquot of the reaction is then spotted onto a P30 filtermat and washed three times for 5 mins in 75 mM phosphoric acid and once in methanol prior to drying and scintillation counting.

What does the source list for N=C(N)NCCC[C@H](NC(=O)[C@H](CCCNC(=N)N)NC(=O)[C@H](CCCNC(=N)N)NC(=O)[C@H](CCCNC(=N)N)NC(=O)[C@H](CCCNC(=N)N)NC(=O)[C@H](CCCNC(=N)N)NC(=O)[C@H](CCCNC(=N)N)NC(=O)[C@H](CCCNC(=N)N)NC(=O)[C@H](CCCNC(=N)N)NC(=O)[C@H](CCCNC(=N)N)NC(=O)[C@H](CCCNC(=N)N)NC(=O)[C@H](CCCNC(=N)N)NC(=O)[C@H](CCCNC(=N)N)NC(=O)[C@@H](N)CCCNC(=N)N)C(N)=O [IK01400, RRRRRRRRRRRRRR-NH2]?
IC50: 6.7 nM; PKG1α IC50 (cell free, 10 μM cGMP, 40 minutes at room temperature): single digit nanomolar range

— patent US20210000912A1, “Compositions And Methods For Prophylaxis Or Treatment Of Pain” (Interk Peptide Therapeutics Limited, priority 2017, published 2021)
